Data reported in PubChem BioAssay (NCI).
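Grown in 96-well plates, cells were treated for 48 hours with each compound at five concentrations. Insufficient inhibition: endpoint recorded as highest concentration tested. At the TGI there is no net growth.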

Assays:
Assay in all cases: growth of human tumour cells (NCI), 48 h
786-0 renal = test system: 786-0 renal
A498 renal = test system: A498 renal
A549 NSCLC = test system: A549 NSCLC
ACHN renal = test system: ACHN renal
BT-549 breast = test system: BT-549 breast
CAKI-1 renal = test system: CAKI-1 renal
CCRF-CEM leukemia = test system: CCRF-CEM leukemia
COLO 205 colon = test system: COLO 205 colon
DU-145 prostate = test system: DU-145 prostate
EKVX NSCLC = test system: EKVX NSCLC
HCC-2998 colon = test system: HCC-2998 colon
HCT-116 colon = test system: HCT-116 colon
HCT-15 colon = test system: HCT-15 colon
HL-60(TB) leukemia = test system: HL-60(TB) leukemia
HOP-62 NSCLC = test system: HOP-62 NSCLC
HOP-92 NSCLC = test system: HOP-92 NSCLC
HS 578T breast = test system: HS 578T breast
HT29 colon = test system: HT29 colon
IGROV1 ovarian = test system: IGROV1 ovarian
K-562 leukemia = test system: K-562 leukemia
KM12 colon = test system: KM12 colon
LOX IMVI melanoma = test system: LOX IMVI melanoma
M14 melanoma = test system: M14 melanoma
MALME-3M melanoma = test system: MALME-3M melanoma
MCF7 breast = test system: MCF7 breast
MDA-MB-231 breast = test system: MDA-MB-231 breast
MDA-MB-435 = test system: MDA-MB-435
MDA-N = test system: MDA-N
MOLT-4 leukemia = test system: MOLT-4 leukemia
NCI-H226 lung = test system: NCI-H226 lung
NCI-H23 lung = test system: NCI-H23 lung
NCI-H460 lung = test system: NCI-H460 lung
NCI-H522 lung = test system: NCI-H522 lung
NCI/ADR-RES ovarian = test system: NCI/ADR-RES ovarian
OVCAR-3 ovarian = test system: OVCAR-3 ovarian
OVCAR-4 ovarian = test system: OVCAR-4 ovarian
OVCAR-5 ovarian = test system: OVCAR-5 ovarian
OVCAR-8 ovarian = test system: OVCAR-8 ovarian
PC-3 prostate = test system: PC-3 prostate
RPMI-8226 leukemia = test system: RPMI-8226 leukemia
RXF 393 renal = test system: RXF 393 renal
SF-268 CNS = test system: SF-268 CNS
SF-295 CNS = test system: SF-295 CNS
SF-539 CNS = test system: SF-539 CNS
SK-MEL-2 melanoma = test system: SK-MEL-2 melanoma
SK-MEL-28 melanoma = test system: SK-MEL-28 melanoma
SK-MEL-5 melanoma = test system: SK-MEL-5 melanoma
SK-OV-3 ovarian = test system: SK-OV-3 ovarian
SN12C renal = test system: SN12C renal
SNB-19 CNS = test system: SNB-19 CNS
SNB-75 CNS = test system: SNB-75 CNS
SR leukemia = test system: SR leukemia
SW-620 colon = test system: SW-620 colon
T-47D breast = test system: T-47D breast
TK-10 renal = test system: TK-10 renal
U251 CNS = test system: U251 CNS
UACC-257 melanoma = test system: UACC-257 melanoma
UACC-62 melanoma = test system: UACC-62 melanoma
UO-31 renal = test system: UO-31 renal

Compound `COc1ccc(C2OC(=O)c3ccc4ccccc4c32)c(C)c1` (centres undefined) has a TGI (786-0 renal) of 54 µM, a TGI (A498 renal) of 66.2 µM and a TGI (A549 NSCLC) greater than 100 µM. It also gave a TGI (ACHN renal) greater than 100 µM, a TGI (BT-549 breast) greater than 100 µM and a TGI (CAKI-1 renal) greater than 100 µM. It also gave a TGI (CCRF-CEM leukemia) greater than 100 µM, a TGI (COLO 205 colon) greater than 35.1 µM and a TGI (DU-145 prostate) greater than 100 µM. For the same compound, the TGI (EKVX NSCLC) was greater than 87.8 µM, the TGI (HCC-2998 colon) was 12.3 µM and the TGI (HCT-116 colon) was greater than 45.7 µM. The TGI (HCT-15 colon) was greater than 60.5 µM, the TGI (HL-60(TB) leukemia) was greater than 24.6 µM and the TGI (HOP-62 NSCLC) was greater than 90.2 µM. The TGI (HOP-92 NSCLC) was greater than 89.8 µM, the TGI (HS 578T breast) was 45.2 µM and the TGI (HT29 colon) was 15.1 µM. The TGI (IGROV1 ovarian) was greater than 67.8 µM, the TGI (K-562 leukemia) was greater than 75.7 µM and the TGI (KM12 colon) was greater than 45.6 µM. The TGI (LOX IMVI melanoma) was greater than 100 µM, the TGI (M14 melanoma) was greater than 38 µM and the TGI (MALME-3M melanoma) was greater than 100 µM. For the same compound, the TGI (MCF7 breast) was 29.9 µM, the TGI (MDA-MB-231 breast) was greater than 100 µM and the TGI (MDA-MB-435) was 6.02 µM. The TGI (MDA-N) was 4.28 µM, the TGI (MOLT-4 leukemia) was greater than 39.8 µM and the TGI (NCI-H226 lung) was 56.9 µM. The TGI (NCI-H23 lung) was 41.8 µM, the TGI (NCI-H460 lung) was greater than 54.3 µM and the TGI (NCI-H522 lung) was 20.9 µM. It also gave a TGI (NCI/ADR-RES ovarian) of 5.61 µM, a TGI (OVCAR-3 ovarian) of 53.1 µM and a TGI (OVCAR-4 ovarian) greater than 100 µM. It also gave a TGI (OVCAR-5 ovarian) greater than 100 µM, a TGI (OVCAR-8 ovarian) of 56.5 µM and a TGI (PC-3 prostate) greater than 100 µM. The TGI (RPMI-8226 leukemia) was greater than 65.4 µM, the TGI (RXF 393 renal) was greater than 65.9 µM and the TGI (SF-268 CNS) was greater than 100 µM. For the same compound, the TGI (SF-295 CNS) was 14.7 µM, the TGI (SF-539 CNS) was 40.5 µM and the TGI (SK-MEL-2 melanoma) was 18.4 µM. For the same compound, the TGI (SK-MEL-28 melanoma) was greater than 71.3 µM, the TGI (SK-MEL-5 melanoma) was 17.6 µM and the TGI (SK-OV-3 ovarian) was 60.1 µM. It also gave a TGI (SN12C renal) greater than 100 µM, a TGI (SNB-19 CNS) greater than 100 µM and a TGI (SNB-75 CNS) of 44.7 µM. For the same compound, the TGI (SR leukemia) was greater than 89.7 µM, the TGI (SW-620 colon) was greater than 72.9 µM and the TGI (T-47D breast) was greater than 86 µM. For the same compound, the TGI (TK-10 renal) was greater than 95.3 µM, the TGI (U251 CNS) was 30.6 µM and the TGI (UACC-257 melanoma) was greater than 100 µM. The TGI (UACC-62 melanoma) was greater than 100 µM and the TGI (UO-31 renal) was greater than 83.8 µM.
